Laboratory results published in PubChem BioAssay (NCI).
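Dose response: 5 concentrations. Exposure: 48 h. Format: 96-well plates. Endpoint: linear interpolation; highest concentration if not reached. GI50 is the concentration that inhibits growth by half. TGI denotes the concentration required for complete inhibition of growth.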

Tests used:
Test in all cases: NCI tumour cell line growth inhibition, 48 h
[1] = test system: DMS 114 small cell lung
[2] = test system: M19-MEL melanoma
[3] = test system: XF 498 CNS
[4] = test system: SNB-78 CNS
[5] = test system: DLD-1 colon
[6] = test system: RXF-631 renal
[7] = test system: MDA-N
[8] = test system: HS 578T breast
[9] = test system: T-47D breast
[10] = test system: SN12K1 renal
[11] = test system: P388/ADR leukemia

COC(=O)C(CC(=O)c1c[nH]c2ccccc12)c1c[nH]c2ccccc12 (stereo not drawn)
TGI [1]: 39.4 µM
TGI [2]: > 10 µM
TGI [3]: 31.8 µM
TGI [4]: 58.2 µM
TGI [5]: > 100 µM
TGI [6]: 31.5 µM

ClCc1ccc(C2OCCO2)cc1
TGI [1]: > 42.9 µM
TGI [2]: 37.8 µM
TGI [3]: 33.3 µM
TGI [4]: > 31.6 µM
TGI [5]: 34.3 µM
TGI [6]: > 100 µM

Nc1ccc(C(=O)CC2(O)C(=O)Nc3c(Cl)cc(Cl)cc32)cc1 (stereo not drawn)
TGI [2]: > 100 µM
TGI [5]: > 100 µM
TGI [6]: 79.8 µM

COc1cc(/C=C/c2ccc(OC)c(OC)c2OC)cc(OC)c1OC
TGI [1]: 60.9 µM
TGI [2]: 51 µM
TGI [3]: 72.3 µM
TGI [4]: 46.4 µM
TGI [5]: > 100 µM
TGI [6]: 51.2 µM

Cc1c(Cl)cccc1NC(=O)/C(Cl)=C(\Cl)C(=O)O
TGI [1]: 36.5 µM
TGI [2]: 30.7 µM
TGI [4]: 44.7 µM
TGI [5]: 40.6 µM
TGI [6]: 56.7 µM

CC1=C(/C=C/C(C)=C/C=C/C(C)=C/C=C/C=C(C)/C=C/C=C(C)/C=C/C2=C(C)C(=O)C(O)CC2(C)C)C(C)(C)CC(O)C1=O (stereo not drawn)
TGI [1]: > 100 µM
TGI [2]: > 100 µM
TGI [4]: > 100 µM
TGI [5]: > 100 µM
TGI [6]: > 100 µM

COc1ccc(N2C(=O)C3c4[nH]c5ccccc5c4C4CCCCCCC4C3C2=O)cc1 (stereo not drawn)
TGI [1]: 28 µM
TGI [2]: > 80.3 µM
TGI [3]: 25.7 µM
TGI [4]: > 100 µM
TGI [5]: > 43.4 µM

CCOC(=O)C1=C(Nc2ccc(Cl)c(Cl)c2)OC/C1=N\NC(=O)Cc1ccccc1
TGI [1]: > 100 µM
TGI [2]: > 100 µM
TGI [3]: > 100 µM
TGI [4]: > 100 µM
TGI [5]: > 100 µM

COc1cc(C2c3cc4c(cc3[C@@H](N(C)C)[C@H]3COC(=O)C23)OCO4)cc(OC)c1O (stereo partly drawn)
TGI [3]: > 100 µM
TGI [5]: > 100 µM
TGI [6]: > 100 µM

Clc1ccc2ns[s+]c2c1
TGI [1]: > 100 µM
TGI [2]: > 100 µM
TGI [3]: > 100 µM
TGI [7]: > 100 µM
TGI [4]: > 100 µM
TGI [5]: > 100 µM
TGI [8]: > 100 µM
TGI [9]: 92 µM

CN1C(=O)C2C=CC1C1CCC2N(C)C1=O (stereo not drawn)
TGI [1]: > 100 µM
TGI [2]: > 100 µM
TGI [4]: > 100 µM
TGI [5]: > 100 µM
TGI [6]: > 100 µM

O=C(CSc1nc(-c2ccccc2)c(-c2ccccc2)[nH]1)NNC(=S)Nc1ccccc1
TGI [1]: > 100 µM
TGI [2]: > 100 µM
TGI [3]: > 100 µM
TGI [4]: > 100 µM
TGI [5]: > 100 µM

COC(=O)[C@]1(C)C(OC)=CC(=O)C2C1[C@H]1CCC[C@@H]21 (stereo partly drawn)
TGI [1]: > 100 µM
TGI [2]: > 100 µM
TGI [3]: > 100 µM
TGI [4]: > 100 µM
TGI [5]: > 100 µM

COc1c(Sc2ccccc2)cc(Sc2ccccc2)c2cccnc12
TGI [1]: 91.3 µM
TGI [2]: 94.9 µM
TGI [3]: 45.6 µM
TGI [4]: > 100 µM
TGI [5]: > 100 µM
TGI [6]: > 100 µM

O=c1cc(-c2ccccn2)[nH]c2cc(F)ccc12
GI50 [1]: 52.4 µM
TGI [1]: > 100 µM
TGI [2]: > 100 µM
TGI [4]: > 100 µM
TGI [5]: > 100 µM
TGI [6]: > 100 µM

CS(=O)(=O)NNS(=O)(=O)c1ccc(Cl)cc1
TGI [1]: > 100 µM
TGI [2]: > 100 µM
TGI [3]: > 100 µM
TGI [5]: > 100 µM
TGI [6]: > 100 µM

COC(=O)c1ccc(C(=O)OC)c2nc3cc(C)ccc3nc12
TGI [1]: > 100 µM
TGI [3]: > 100 µM
TGI [4]: > 100 µM
TGI [5]: > 100 µM
TGI [6]: > 100 µM

CCCCCCCCCCCCCC(=O)NCC(OCC)OCC
TGI [1]: > 100 µM
TGI [2]: > 100 µM
TGI [3]: > 100 µM
TGI [4]: > 100 µM
TGI [5]: > 100 µM

Nc1cc2[nH]cnc2c(=O)[nH]1
TGI [1]: > 300 µM
TGI [10]: > 300 µM
TGI [2]: > 300 µM
TGI [3]: 29.4 µM
TGI [7]: > 300 µM
TGI [4]: > 300 µM
TGI [5]: > 300 µM
TGI [8]: > 300 µM
TGI [11]: > 300 µM
TGI [9]: > 300 µM

COc1cc(C2c3cc4c(cc3[C@@H](OCCN(C)C)C3COC(=O)[C@H]23)OCO4)cc(OC)c1O (stereo partly drawn)
TGI [2]: 3.17 µM
TGI [3]: 1.74 µM
TGI [4]: > 100 µM
TGI [5]: 5.93 µM
TGI [6]: 1.78 µM

COC(=O)C1Cc2c([nH]c3ccccc23)C(c2ccccc2O)N1Cc1ccccc1 (stereo not drawn)
TGI [1]: > 31.6 µM
TGI [2]: > 46.4 µM
TGI [4]: > 46.4 µM
TGI [5]: > 100 µM
TGI [6]: 45.3 µM

COC(=O)[C@H]1N[C@@H](C(=O)OC)C23CCC[C@H]2CC[C@]1(C(OC)OC)C3
TGI [1]: > 100 µM
TGI [2]: > 100 µM
TGI [3]: > 100 µM
TGI [4]: > 100 µM
TGI [5]: > 100 µM

CC(/C=C/NNC1=NC(c2ccccc2)C(c2ccccc2)=NN1)Sc1ccccc1N (stereo not drawn)
TGI [2]: 28.9 µM
TGI [4]: 67.9 µM
TGI [5]: 21.7 µM
TGI [6]: 38.7 µM

COc1ccccc1NC(=O)C1=C(C)NC(C)=C(C(=O)Nc2ccccc2OC)C1c1ccc(N(C)C)cc1
TGI [1]: 65.6 µM
TGI [2]: > 100 µM
TGI [3]: 57.1 µM
TGI [4]: 81.1 µM
TGI [5]: 55.1 µM
